Data on 1 molecule can be found in paper PMC7470982 (2020).

Where only a bound is given, the exact number is not on record here.

Assay [1] relates to py27 (C-MYC) (DNA, i motif) CCTTCCCCACCCTCCCCACCCTCCCCA
Put plainly: CD melting. The settings on record: 100 mM KCl, potassium phosphate 60 mM; 1× BPES, pH 5.5; 1 μM DNA, 20 μM compound.

Assay [2] concerns bio-C-KIT (DNA, i motif) CCCTCCTCCCAGCGCCCTCCCT
Kind of assay: SPR. As to conditions: 100 mM KCl; 20 mM MES, pH 5.5, 25 °C; immobilised DNA.

In assay [3] the test system is py39 (DNA, i motif) CAGCCCCGCTCCCGCCCCCTTCCTCCCGCGCCCGCCCCT
Put plainly: CD melting. The settings on record: 100 mM KCl, potassium phosphate 60 mM; 1× BPES, pH 5.5; 1 μM DNA, 20 μM compound.

In assay [4] the test system is bio-py39 (DNA, i motif) CAGCCCCGCTCCCGCCCCCTTCCTCCCGCGCCCGCCCCT
Kind of assay: SPR. The settings on record: 100 mM KCl; 20 mM MES, pH 5.5, 25 °C; immobilised DNA.

Assay [5] has as its system py39 (DNA, i motif) CAGCCCCGCTCCCGCCCCCTTCCTCCCGCGCCCGCCCCT
Put plainly: TO fluorescent intercalator displacement. The settings on record: K+ (1x BPES: 100 mM KCl, potassium phosphate); 1x BPES pH 5.5; 1 μM DNA, 1 μM thiazole orange displaced.

Assay [6] shares this test system. Put plainly: ITC. The settings on record: 100 mM KCl, potassium phosphate 60 mM; 1× BPES (1 mM EDTA), pH 5.5, 25 °C; fitted to 1:1 model.
Assay [7] concerns hairpin (DNA, hairpin) CGCGCGCGTTTTCGCGCGCG
Kind of assay: TO fluorescent intercalator displacement. The settings on record: 1 μM DNA, 1 μM thiazole orange displaced.

The test system of assay [8] is C-KIT (DNA, i motif) CCCTCCTCCCAGCGCCCTCCCT
Kind of assay: CD melting. As to conditions: 100 mM KCl, potassium phosphate 60 mM; 1× BPES, pH 5.5; 1 μM DNA, 20 μM compound.

In assay [9] the test system is pu39 (DNA, G4) AGGGGCGGGCGCGGGAGGAAGGGGGCGGGAGCGGGGCTG
Put plainly: TO fluorescent intercalator displacement. The settings on record: K+ (100 mM KCl); 20 mM Tris-HCl pH 7.4; 1 μM DNA, 1 μM thiazole orange displaced.

Assay [10] deals with Fpy39T (DNA, i motif) CAGCCCCGCTCCCGCCCCCTTCCTCCCGCGCCCGCCCCT
Put plainly: FRET melting. The settings on record: 100 mM KCl, potassium phosphate 60 mM; 1× BPES, pH 5.5; 0.2 μM DNA, 4 μM compound.

The subject of assay [11] is FC-KITT (DNA, i motif) CCCTCCTCCCAGCGCCCTCCCT
Put plainly: FRET melting. As to conditions: 100 mM KCl, potassium phosphate 60 mM; 1× BPES, pH 5.5; 0.2 μM DNA, 4 μM compound.

In assay [12] the test system is Fpy39 (DNA, i motif) CAGCCCCGCTCCCGCCCCCTTCCTCCCGCGCCCGCCCCT
Put plainly: MST. As to conditions: 100 mM KCl, potassium phosphate 60 mM; 1× BPES (1 mM EDTA), pH 5.5, 25 °C.

In assay [13] the test system is Fpy27T (F-C-MYC-T) (DNA, i motif) CCTTCCCCACCCTCCCCACCCTCCCCA
Kind of assay: FRET melting. The settings on record: 100 mM KCl, potassium phosphate 60 mM; 1× BPES, pH 5.5; 0.2 μM DNA, 4 μM compound.

Assay [14] has as its system GC duplex (py39+pu39) (DNA, duplex) CAGCCCCGCTCCCGCCCCCTTCCTCCCGCGCCCGCCCCT/AGGGGCGGGCGCGGGAGGAAGGGGGCGGGAGCGGGGCTG
Kind of assay: TO fluorescent intercalator displacement. The settings on record: 20 mM NaCl; 20 mM Tris-HCl, pH 7.4; 1 μM DNA, 1 μM thiazole orange displaced.

In assay [15] the test system is FVEGFT (DNA, i motif) GACCCCGCCCCCGGCCCGCCCCGG
Kind of assay: FRET melting. As to conditions: 100 mM KCl, potassium phosphate 60 mM; 1× BPES, pH 5.5; 0.2 μM DNA, 4 μM compound.

For assay [16], the system named is bio-hairpin (DNA, hairpin, HEG (non-nucleotide) linker between nucleotides 10 and 11) TATAGCTATATATAGCTATA
Kind of assay: SPR. The settings on record: 100 mM KCl; 20 mM Tris-HCl, pH 7.4, 25 °C; immobilised DNA.

Assay [17] concerns bio-VEGF (DNA, i motif) GACCCCGCCCCCGGCCCGCCCCGG
Kind of assay: SPR. The settings on record: 100 mM KCl; 20 mM MES, pH 5.5, 25 °C; immobilised DNA.

The subject of assay [18] is bio-py27 (bio-C-MYC) (DNA, i motif) CCTTCCCCACCCTCCCCACCCTCCCCA
Put plainly: SPR. As to conditions: 100 mM KCl; 20 mM MES, pH 5.5, 25 °C; immobilised DNA.

The subject of assay [19] is Fpy27 (DNA, i motif) CCTTCCCCACCCTCCCCACCCTCCCCA
Kind of assay: MST. As to conditions: 100 mM KCl, potassium phosphate 60 mM; 1× BPES (1 mM EDTA), pH 5.5, 25 °C.

Assay [20] relates to py27 (C-MYC) (DNA, i motif) CCTTCCCCACCCTCCCCACCCTCCCCA
Kind of assay: ITC. As to conditions: 100 mM KCl, potassium phosphate 60 mM; 1× BPES (1 mM EDTA), pH 5.5, 25 °C; fitted to 1:1 model.

The subject of assay [21] is VEGF (DNA, i motif) GACCCCGCCCCCGGCCCGCCCCGG
Kind of assay: CD melting. The settings on record: 100 mM KCl, potassium phosphate 60 mM; 1× BPES, pH 5.5; 1 μM DNA, 20 μM compound.

Assay [22] has as its system FKRAST (DNA, i motif) GCCCGGCCCCCGCTCCTCCCCCGCCGGCCCGGCCCGGCCCCCTCCTTCTCCCCG
Kind of assay: FRET melting. The settings on record: 100 mM KCl, potassium phosphate 60 mM; 1× BPES, pH 5.5; 0.2 μM DNA, 4 μM compound.

In assay [23] the test system is KRAS (DNA, i motif) GCCCGGCCCCCGCTCCTCCCCCGCCGGCCCGGCCCGGCCCCCTCCTTCTCCCCG
Put plainly: CD melting. As to conditions: 100 mM KCl, potassium phosphate 60 mM; 1× BPES, pH 5.5; 1 μM DNA, 20 μM compound.

Turning to `Cc1ccc2c(c1)c(=O)c1cc(C(=O)NCCCN3CCOCC3)ccc1n2-c1ccc(C(=O)NCCCN2CCOCC2)cc1`, the ΔTm in assay [1] is 4.26 °C; in [3], 9.63 °C; in assay [8], 0.20 °C; in [10], 9.15 °C; in assay [11], -0.52 °C; in [13] it was 3.50 °C. For the same molecule, the ΔTm in [15] is -0.64 °C; in assay [21] it was 1.34 °C; in [22], 1.17 °C; in [23] it was 1.03 °C. Also, the KD was 34.5 µM in assay [2]; 3.56 µM in assay [4]; 5.52 µM in assay [6]; 4.69 µM in [12]; greater than 50 µM in assay [16]; 36.4 µM in [17]. The results for the KD in assay [18], in [19] and in assay [20] were 11.95 µM, 10.95 µM and 11.1 µM, respectively. Moreover, the “relative TO displacement ratio” value is 52% in assay [5], 12% in assay [7] and 6% in assay [14]. For the same molecule, the relative replacement ratio in assay [9] turned out to be 10%.

What is called ΔTm is the change in melting temperature against a reference sample. By KD is commonly meant the constant that tells how readily two partners part at equilibrium. Lower therefore signals higher affinity.
